Test [1] concerns the target T1, PRMT5-MEP50 enzyme complex (Homo sapiens, UniProt O14744).
T1 construct: Full-length (FL)-PRMT5-MEP50 enzyme complex (recombinant proteins from baculovirus-transfected Sf21 cells: FL-PRMT5; MW=73837 kDa and FL-MEP50; MW=38614); made in house; host or cells: baculovirus-transfected Sf21 cells
Description: PRMT5-MEP50 Enzyme Methylation Assay (Version B). It is filed as biochemical. The procedure: PRMT5-MEP50 Enzyme Methylation Assay (Version B)
PRMT5-MEP50 biochemical assay is a direct measurement of the methylation activity of the enzyme complex on a short peptide substrate derived from the N-terminus of H4 histone. Methylation experiment was performed with recombinant PRMT5-MEP50 protein complex. The assessment of inhibitory effect (EC50) of small molecules was measured by the effectiveness of the compounds to inhibit this reaction.
In this assay, the potency (EC50) of each compound was determined from a twenty-point (1:2 serial dilution; top compound concentration of 100000 nM) titration curve using the following outlined procedure. To each well of a white ProxiPlus 384 well-plate, 100 nL of compound (1% DMSO in final assay volume of 10 μL) was dispensed, followed by the addition of 8 μL of 1× assay buffer (50 mM Bicine pH 8.0, 1 mM DTT, 0.004% Tween20, 0.01% BSA) containing 0.625 nM of Full-length (FL)-PRMT5-MEP50 enzyme complex (recombinant proteins from baculovirus-transfected Sf21 cells: FL-PRMT5; MW=[…] and FL-MEP50; MW=38614). Plates were sealed and placed in a 37° C. humidified chamber for 30 minutes pre-incubation with compounds. Subsequently, each reaction was initiated by the addition of 2 μL 1× assay buffer containing 375 nM biotinylated H4R3 (MeI) peptide, and 75 μM S-(5′-Adenosyl)-L-Methionine Chloride (SAM). The final reaction in each well of 10 μL consists of 0.5 nM PRMT5-MEP50, 75 nM biotinylated-peptide, and 15 μM SAM. Methylation reactions were allowed to proceed for 150 minutes in a sealed plate at 37° C. Reactions were immediately quenched by the addition of 1 μL of 10% formic acid. Plates were then frozen and shipped to SAMDI™ Tech Inc. to determine the percent conversion from […]. Dose-response curves were generated by plotting percent effect (% product conversion; Y-axis) vs. Log 10 compound concentrations (X-axis). EC50 values were determined by non-linear regression according to models for either sigmoidal (4 parameters) or biphasic (7 parameters) dose-response curves.

A further test concerns the target T2, PRMT5 (Homo sapiens, UniProt O14744).
T2 construct: seeded with 4000 MCF-7 cells in 30 μl media; endogenous in cells; host or cells: MCF-7 cells
Description: PRMT5 Cell Target Engagement (TE) Assay. It is filed as cell-based. The settings on record: MCF-7 cells, treated for 3 days, symmetric dimethylation of arginine (SDMA) by high content imaging. The source says: PRMT5 Cell Target Engagement (TE) Assay
The PRMT5 TE assay is a biomarker assay for identifying compounds that inhibit symmetric dimethylation of arginine (SDMA) of PRMT5 substrates. The following substrates have been reported for PRMT5: histone H2A and H4 R3, Histone H3 R2, Histone H3 R8, spliceosome Sm proteins, ribosomal protein RPS10, p53, FEN1, nucleoplasmin, nucleolin, EGFR and EBNA. The assay focuses on detecting symmetrically dimethylated nuclear proteins using high content imaging technology. Detection of the expression of symmetrically dimethylated nuclear proteins is through a mixture of primary rabbit monoclonal antibodies to SDMA (CST 13222), which in turn recognized by an Alexafluor 488 dye-conjugated anti-rabbit IgG secondary antibody. The IN Cell Analyzer 2200 or Opera-Phenix measures nuclear Alexafluor 488 fluorescent dye intensity that is directly related to the level of expression of symmetrically dimethylated nuclear proteins at the single cell level. Nuclear AF488 dye intensities are compared to the mean value for DMSO treated cells (MIN) to report percent of inhibition for each compound-treated well.
In this assay, the cell potency (EC50) of each compound was determined from a ten point (1:3 serial dilution; top compound concentration of 10000 nM) titration curve using the following outlined procedure. Each well of a BD falcon collagen coated black/clear bottom 384-well plate was seeded with 4000 MCF-7 cells in 30 μl media and allowed to attach for 5 h. Media is ATCC-formulated Eagle's Minimum Essential Medium, Catalog No. 30-2003. To make the complete growth medium, the following components were added to the base medium: 0.01 mg/mL human recombinant insulin; fetal bovine serum to a final concentration of 10%. Additional 30 μl of media containing 2× compounds were added to each well. Cells were treated for 3 days in 37° C. CO2 incubator. On day 3, cells were fixed with Cytofix, permeabilized with 0.4% Triton-X-100/Cytofix, and washed with D-PBS without Ca/Mg. Cells were blocked with Licor Odessey blocking reagent for 1 h at room temperature, followed by incubation with anti-SDMA (1:1000) antibody at 4° C. overnight. 1° antibody was removed, followed by three washings with DPBS without Ca/Mg and 0.05% Tween20. Hoechst (5 μg/mL), Cell Mask deep stain (1:2000) and Alexa488-conjugated goat anti-rabbit IgG (2 μg/mL) was added for 1 h at room temperature. A final washing step (three washes) was performed before sealing plate for imaging on In Cell Analyzer 2200 or Opera-Phenix. Images from analyzer were uploaded to Columbus (at WP or BOS) for image analysis. IC50 values were determined by 4 parameters robust fit of percent fluorescence units vs. (Log10) compound concentrations.

Setting [2] is: only one EC50 shown: 4 parameters single site sigmoidal model, 30 min pre-incubation, read-out: Enzyme Methylation Assay Version B (EC50).
Where [3] appears, read: first of two EC50s: 7 parameters biphasic model, read-out: Enzyme Methylation Assay Version B (EC50_1).
Setting [4] is: second of two EC50s: 7 parameters biphasic model, read-out: Enzyme Methylation Assay Version B (EC50_2).

Like-named read-outs stand apart in the source and are kept apart here.

T2 sequence (O14744 whole entry): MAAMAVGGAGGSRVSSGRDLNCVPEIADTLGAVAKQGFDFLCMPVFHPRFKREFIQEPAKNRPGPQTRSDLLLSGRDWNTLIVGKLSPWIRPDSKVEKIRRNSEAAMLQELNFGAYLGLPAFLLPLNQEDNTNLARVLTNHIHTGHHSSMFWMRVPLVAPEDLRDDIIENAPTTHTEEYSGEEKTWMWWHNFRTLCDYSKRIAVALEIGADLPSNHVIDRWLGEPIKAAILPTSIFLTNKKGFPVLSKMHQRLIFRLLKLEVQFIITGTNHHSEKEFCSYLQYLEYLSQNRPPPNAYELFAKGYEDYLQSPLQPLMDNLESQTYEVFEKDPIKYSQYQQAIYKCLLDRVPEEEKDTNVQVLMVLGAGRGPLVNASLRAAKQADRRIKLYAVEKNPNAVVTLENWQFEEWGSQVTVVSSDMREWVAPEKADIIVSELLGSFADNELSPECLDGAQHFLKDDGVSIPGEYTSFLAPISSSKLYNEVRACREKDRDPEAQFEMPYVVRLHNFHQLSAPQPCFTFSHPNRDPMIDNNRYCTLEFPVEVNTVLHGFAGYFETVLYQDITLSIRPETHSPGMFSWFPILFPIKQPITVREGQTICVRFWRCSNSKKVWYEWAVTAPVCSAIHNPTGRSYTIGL
T2 sequence (Q9BQA1 whole entry partner): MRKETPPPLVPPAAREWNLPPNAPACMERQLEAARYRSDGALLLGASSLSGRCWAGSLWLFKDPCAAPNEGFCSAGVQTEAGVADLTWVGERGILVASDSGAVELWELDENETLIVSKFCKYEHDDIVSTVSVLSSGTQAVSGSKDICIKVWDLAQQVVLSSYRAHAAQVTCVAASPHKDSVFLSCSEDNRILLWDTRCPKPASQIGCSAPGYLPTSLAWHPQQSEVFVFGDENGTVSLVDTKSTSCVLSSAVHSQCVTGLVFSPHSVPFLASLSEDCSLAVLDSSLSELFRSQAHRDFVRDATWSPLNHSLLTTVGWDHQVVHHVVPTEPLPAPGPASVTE
T1 sequence (O14744 whole entry): as the sequence (O14744 whole entry) above
T1 sequence (Q9BQA1 whole entry partner): as the sequence (Q9BQA1 whole entry partner) above

On to `Cc1ccc2c(c1)CCN([C@@H]1CCN(C(=O)c3ccc(OCC(F)(F)F)nc3)C[C@H]1O)C2` [Example 5, ((3R,4R)-3-hydroxy-4-(6-methyl-3,4-dihydroisoquinolin-2(1H)-yl)piperidin-1-yl)(6-(2,2,2-trifluoroethoxy)pyridin-3-yl)methanone], for which the EC50 in test [1] (setting [2]) is 1410 nM; at PRMT5, over 10000 nM.

With `O=C(c1ccn(CC(F)(F)F)c(=O)c1)N1CC[C@H](N2CCc3ccccc3C2)[C@@H](O)C1` [Example 31, 4-((3S,4S)-4-(3,4-dihydroisoquinolin-2(1H)-yl)-3-hydroxypiperidine-1-carbonyl)-1-(2,2,2-trifluoroethyl)pyridin-2(1H)-one], the results for the EC50 (in test [1] (setting [3]); in test [1] (setting [4]); on PRMT5) were about 30 nM, 34300 nM and 405 nM, respectively.

In the case of `O=C(c1ccn(CC(F)(F)F)c(=O)c1)N1CC[C@@H](N2CCc3ccccc3C2)[C@H](O)C1` [Example 32, 4-((3R,4R)-4-(3,4-dihydroisoquinolin-2(1H)-yl)-3-hydroxypiperidine-1-carbonyl)-1-(2,2,2-trifluoroethyl)pyridin-2(1H)-one], the EC50 in test [1] (setting [2]) is 2160 nM; at PRMT5 it was over 10000 nM.

With `CCOc1cc(C(=O)N2C3CCC2COC3)ccc1C(=O)N1CC[C@H](N2CCc3ccccc3C2)[C@@H](O)C1` [Example 33], the EC50 in test [1] (setting [3]) came to 23 nM; in test [1] (setting [4]), 4650 nM; on PRMT5, 27 nM.

In the case of `CCOc1cc(C(=O)N2C3CCC2COC3)ccc1C(=O)N1CC[C@@H](N2CCc3ccccc3C2)[C@H](O)C1` [Example 34, (4-(3-oxa-8-azabicyclo[3.2.1]octane-8-carbonyl)-2-ethoxyphenyl)((3R,4R)-4-(3,4-dihydroisoquinolin-2(1H)-yl)-3-hydroxypiperidin-1-yl)methanone], the EC50 in test [1] (setting [3]) was about 38 nM; in test [1] (setting [4]), 20600 nM; at PRMT5, 2220 nM.

Regarding `O=C(c1ccc(C(=O)N2C3CCC2COC3)cc1)N1CC[C@H](N2CCc3ccccc3C2)[C@@H](O)C1` [Example 35], the EC50 in test [1] (setting [3]) was 6.6 nM; in test [1] (setting [4]), 2580 nM; on PRMT5, 68 nM.

Take `O=C(c1ccc(C(=O)N2C3CCC2COC3)cc1)N1CC[C@@H](N2CCc3ccccc3C2)[C@H](O)C1` [Example 36, (4-(3-oxa-8-azabicyclo[3.2.1]octane-8-carbonyl)phenyl)((3R,4R)-4-(3,4-dihydroisoquinolin-2(1H)-yl)-3-hydroxypiperidin-1-yl)methanone]: the EC50 in test [1] (setting [3]) was about 552 nM; in test [1] (setting [4]), over 100000 nM; on PRMT5 it was over 10000 nM.

As for `O=C(c1ccc(C(=O)N2C3CCC2COC3)cc1)N1CC[C@H](N2CCc3c(F)cccc3C2)[C@@H](O)C1` [Example 37, (4-(3-oxa-8-azabicyclo[3.2.1]octane-8-carbonyl)phenyl)((3S,4S)-4-(5-fluoro-3,4-dihydroisoquinolin-2(1H)-yl)-3-hydroxypiperidin-1-yl)methanone], the EC50 in test [1] (setting [3]) was about 87 nM; in test [1] (setting [4]) it was 28600 nM; on PRMT5 it was 1850 nM.

As for `O=C(c1ccc(C(=O)N2C3CCC2COC3)cc1)N1CC[C@@H](N2CCc3c(F)cccc3C2)[C@H](O)C1` [Example 38, (4-(3-oxa-8-azabicyclo[3.2.1]octane-8-carbonyl)phenyl)((3R,4R)-4-(5-fluoro-3,4-dihydroisoquinolin-2(1H)-yl)-3-hydroxypiperidin-1-yl)methanone], the results for the EC50 (in test [1] (setting [3]); in test [1] (setting [4]); at PRMT5) were about 402 nM, over 100000 nM and over 10000 nM, respectively.

Turning to `O=C(c1ccc(C(=O)N2C3CCC2COC3)cc1)N1CC[C@H](N2CCc3cc(F)ccc3C2)[C@@H](O)C1` [Example 39, (4-(3-oxa-8-azabicyclo[3.2.1]octane-8-carbonyl)phenyl)((3S,4S)-4-(6-fluoro-3,4-dihydroisoquinolin-2(1H)-yl)-3-hydroxypiperidin-1-yl)methanone], the EC50 in test [1] (setting [3]) is 31200 nM; in test [1] (setting [4]), over 100000 nM; on PRMT5, over 10000 nM.

For the molecule `O=C(c1ccc(C(=O)N2C3CCC2COC3)cc1)N1CC[C@@H](N2CCc3cc(F)ccc3C2)[C@H](O)C1` [Example 40, (4-(3-oxa-8-azabicyclo[3.2.1]octane-8-carbonyl)phenyl)((3R,4R)-4-(6-fluoro-3,4-dihydroisoquinolin-2(1H)-yl)-3-hydroxypiperidin-1-yl)methanone], the EC50 in test [1] (setting [3]) is 45100 nM; in test [1] (setting [4]), over 100000 nM; at PRMT5, over 10000 nM.

Take `O=C(c1ccc(C(=O)N2C3CCC2COC3)cc1)N1CC[C@H](N2CCc3ccc(F)cc3C2)[C@@H](O)C1` [Example 41, (4-(3-oxa-8-azabicyclo[3.2.1]octane-8-carbonyl)phenyl)((3S,4S)-4-(7-fluoro-3,4-dihydroisoquinolin-2(1H)-yl)-3-hydroxypiperidin-1-yl)methanone]: the EC50 in test [1] (setting [3]) was found to be 19 nM; in test [1] (setting [4]), 8110 nM; on PRMT5, 1490 nM.

In the case of `O=C(c1ccc(C(=O)N2C3CCC2COC3)cc1)N1CC[C@@H](N2CCc3ccc(F)cc3C2)[C@H](O)C1` [Example 42], the figures for the EC50 (in test [1] (setting [3]); in test [1] (setting [4]); at PRMT5) were 12400 nM, over 100000 nM and over 10000 nM, respectively.

In the case of `O=C(c1ccc(OCC(F)(F)F)nc1)N1CC[C@H](N2CCc3ccccc3C2)[C@@H](O)C1` [Example 43, ((3S,4S)-4-(3,4-dihydroisoquinolin-2(1H)-yl)-3-hydroxypiperidin-1-yl)(6-(2,2,2-trifluoroethoxy)pyridin-3-yl)methanone], the EC50 in test [1] (setting [3]) stood at 3.7 nM; in test [1] (setting [4]), 3200 nM; on PRMT5, 441 nM.

For the molecule `O=C(c1ccc(OCC(F)(F)F)nc1)N1CC[C@@H](N2CCc3ccccc3C2)[C@H](O)C1` [Example 44, ((3R,4R)-4-(3,4-dihydroisoquinolin-2(1H)-yl)-3-hydroxypiperidin-1-yl)(6-(2,2,2-trifluoroethoxy)pyridin-3-yl)methanone], the figures for the EC50 (in test [1] (setting [3]); in test [1] (setting [4]); at PRMT5) were about 312 nM, over 100000 nM and over 10000 nM, respectively.

Regarding `CC(=O)N1CCC(Nc2cc(C(=O)N3CC[C@H](N4CCc5ccccc5C4)[C@@H](O)C3)c(Cl)cn2)CC1` [Example 49, 1-{4-[(5-chloro-4-{[(3S,4S)-4-(3,4-dihydroisoquinolin-2(1H)-yl)-3-hydroxypiperidin-1-yl]carbonyl}pyridin-2-yl)amino]piperidin-1-yl}ethanone], the values for the EC50 (in test [1] (setting [3]); in test [1] (setting [4]); at PRMT5) were 11 nM, 8910 nM and 7.8 nM, respectively.

For the origin of these results see patent US12595248B2, “PRMT5 inhibitors” (Merck Sharp & Dohme LLC, priority 2019, dated 2026).
